Data as given in the CheMixHub viscosity set.

Assay: xn = mol fraction of the nth substance listed

NCc1ccccc1 + CC(C)CCO
viscosity [mPa·s], 101.33 kPa
Conditions | x1 = 0.0999 | x1 = 0.1999 | x1 = 0.3 | x1 = 0.4 | x1 = 0.5 | x1 = 0.6 | x1 = 0.7 | x1 = 0.8 | x1 = 0.9
298.15 K | 3.425 | 3.149 | 2.901 | 2.684 | 2.474 | 2.284 | 2.103 | 1.941 | 1.806
303.15 K | 2.914 | 2.672 | 2.455 | 2.259 | 2.099 | 1.937 | 1.803 | 1.683 | 1.582
308.15 K | 2.536 | 2.319 | 2.142 | 1.979 | 1.833 | 1.706 | 1.602 | 1.51 | 1.441

S=C=S + Cc1ccccc1
298.15 K, 101 kPa
Conditions | viscosity [mPa·s]
x1 = 0.1 | 0.5295
x1 = 0.2 | 0.5063
x1 = 0.3 | 0.4837
x1 = 0.4 | 0.462
x1 = 0.5 | 0.4412
x1 = 0.6 | 0.4217
x1 = 0.7 | 0.4035
x1 = 0.8 | 0.3868
x1 = 0.9 | 0.3718
x2 = 0.06082 | 0.37
x2 = 0.3361 | 0.417
x2 = 0.587 | 0.469

CCC(=O)c1ccccc1 + CCCCOCCO
viscosity [mPa·s], 101 kPa
Conditions | x1 = 0.0996 | x1 = 0.1994 | x1 = 0.2992 | x1 = 0.399 | x1 = 0.499 | x1 = 0.599 | x1 = 0.6992 | x1 = 0.7994 | x1 = 0.8996
303.15 K | 2.333 | 2.24 | 2.148 | 2.056 | 1.964 | 1.873 | 1.782 | 1.692 | 1.602
308.15 K | 2.192 | 2.109 | 2.027 | 1.946 | 1.865 | 1.784 | 1.704 | 1.624 | 1.545
313.15 K | 2.044 | 1.972 | 1.901 | 1.831 | 1.762 | 1.692 | 1.622 | 1.554 | 1.486
318.15 K | 1.863 | 1.805 | 1.749 | 1.694 | 1.639 | 1.584 | 1.53 | 1.476 | 1.424
